Results on 7 compounds are retold here after PMC4262413, “Importance of Tryptophan in Transforming an Amphipathic Peptide into a Pseudomonas aeruginosa-Targeted Antimicrobial Peptide” (PLoS ONE, 2014).

≈ marks a conversion by molar mass, not a printed value. Like-named read-outs stand apart in the source and are kept apart here. Residues, ends and D or L forms follow the SMILES beside them. Bounds are passed on as bounds.

Assay in all cases: microbe, parasite or virus in culture
For one assay, the system named is P. auruginosa 21625. In kind it is cell-based, Pseudomonas aeruginosa. The protocol:
(§1) Minimal inhibitory concentration (MIC) assays were performed as described previously. Briefly, after incubation overnight in Mueller-Hinton (MH) broth at 37°C, the bacteria were grown to exponential growth phase and diluted to approximately 1×10^5 CFU/ml. The peptides were dissolved in 0.2% bovine serum albumin (BSA) containing 0.01% (v/v) acetic acid, and they were then added to each well of a 96-well plates at a final concentration ranging from 0.25 to 128 µM. Each well contained a total volume of 100 µL (50 µL of inoculums and 50 µL of peptide-containing solution). The MICs were determined as the lowest concentration of peptide that prevented visible turbidity by visual inspection after incubation at 37°C for 16–18 h. Independent experiments were carried out at least three times. Uninoculated MH broth was used as a negative control and cultures without added peptides served as the positive control. Minimal bactericidal concentration (MBC) assay was performed following MIC assay. At the end of MIC assay 10 µL aliquots of the medium were taken from peptide-containing wells with no visible bacterial growth. These are plated on MH agar, incubated for 18 h to allow colony growth. The MBC was defined as the lowest peptide concentration resulting in no bacterial growth in the media. Each assay was performed at least three times.

The test system of another assay is P. auruginosa 21630. It counts as cell-based, Pseudomonas aeruginosa. The protocol: as §1
For another assay, the system named is P. aeruginosa 27853. It counts as cell-based, Pseudomonas aeruginosa. The protocol:
as §1

For another assay, the system named is P. auruginosa LC. In kind it is cell-based, Pseudomonas aeruginosa. The protocol:
as §1

The subject of a further assay is P. auruginosa 10419. In kind it is cell-based, Pseudomonas aeruginosa. The protocol:
as §1

The test system of a further assay is E. coli 25922. In kind it is cell-based, Escherichia coli. The method, then:
as §1

The subject of the next assay is S. epidermidis 12228. It counts as cell-based, Staphyfococcus epidermidis. The method, then: as §1
The test system of the next assay is S. typhimurium 7731. In kind it is cell-based, Salmonella typhimurium. The protocol:
as §1

Assay [1] relates to P. auruginosa LCCI (ciprofloxacin-resistant strain). The protocol:
as §1
(§2) The antimicrobial activity of the RI16 and mutant peptides against Gram-negative and Gram-positive bacteria were determined.

The subject of assay [2] is P. auruginosa LCGE (gentamincin-resistant strain). The method, then: as §1, §2
In assay [3] the test system is P. auruginosa LCCE (ceftazidime-resistant strain). The method, then:
as §1, §2

In a further assay the test system is S. aureus 29213. In kind it is cell-based, Staphylococcus aureus. The method, then:
as §1

Consider `NCC[C@H](O)C(=O)N[C@@H]1C[C@H](N)[C@@H](O[C@H]2O[C@H](CN)[C@@H](O)[C@H](O)[C@H]2O)[C@H](O)[C@H]1O[C@H]1O[C@H](CO)[C@@H](O)[C@H](N)[C@H]1O` [Amikacin, reference compound], for which the MIC against P. auruginosa 21625 (Pseudomonas aeruginosa, P. auruginosa 21625, MH broth, ~1×10^5 CFU/ml, 37°C, 16–18 h, visible turbidity, at least three independent experiments) worked out at 16 µM (≈ 9.37 µg/mL); in the assay on P. auruginosa 21630 (Pseudomonas aeruginosa, P. auruginosa 21630, MH broth, ~1×10^5 CFU/ml, 37°C, 16–18 h, visible turbidity, at least three independent experiments), 1 µM (≈ 0.586 µg/mL); in the assay with P. aeruginosa 27853 (Pseudomonas aeruginosa, P. auruginosa 27853, MH broth, ~1×10^5 CFU/ml, 37°C, 16–18 h, visible turbidity, at least three independent experiments), 1 µM (≈ 0.586 µg/mL); in the assay with P. auruginosa LC (Pseudomonas aeruginosa, P. auruginosa LC, MH broth, ~1×10^5 CFU/ml, 37°C, 16–18 h, visible turbidity, at least three independent experiments), 0.25 µM (≈ 0.146 µg/mL); against P. auruginosa 10419 (Pseudomonas aeruginosa, P. auruginosa 10419, MH broth, ~1×10^5 CFU/ml, 37°C, 16–18 h, visible turbidity, at least three independent experiments) it was 2 µM (≈ 1.17 µg/mL); against E. coli 25922 (Escherichia coli, 25922), 0.125 µM (≈ 0.0732 µg/mL). In addition, the MIC against S. epidermidis 12228 (Staphylococcus epidermidis, 12228) is 0.125 µM (≈ 0.0732 µg/mL); with S. typhimurium 7731 (Salmonella enterica, S. typhimurium 7731, MH broth, ~1×10^5 CFU/ml, 37°C, 16–18 h, visible turbidity, at least three independent experiments), 0.5 µM (≈ 0.293 µg/mL); in assay [1] (Pseudomonas aeruginosa), 8 µM (≈ 4.68 µg/mL); in assay [2] (Pseudomonas aeruginosa) it was over 1280 µM; in assay [3] (Pseudomonas aeruginosa), 8 µM (≈ 4.68 µg/mL); in the assay on S. aureus 29213 (Staphylococcus aureus, S. aureus 29213, MH broth, ~1×10^5 CFU/ml, 37°C, 16–18 h, visible turbidity, at least three independent experiments), 1 µM (≈ 0.586 µg/mL).

Regarding `CC[C@H](C)[C@H](NC(=O)[C@H](CCCCN)NC(=O)[C@H](CCCCN)NC(=O)[C@H](CC(C)C)NC(=O)[C@H](CCCNC(=N)N)NC(=O)[C@H](CCCCN)NC(=O)[C@H](CCCNC(=N)N)NC(=O)[C@@H](NC(=O)[C@H](CCCCN)NC(=O)[C@H](CCCCN)NC(=O)[C@H](CCCNC(=N)N)NC(=O)[C@H](CC(C)C)NC(=O)[C@H](CCCNC(=N)N)NC(=O)[C@H](CCCNC(=N)N)NC(=O)[C@H](Cc1ccccc1)NC(=O)[C@@H](N)CCCNC(=N)N)[C@@H](C)O)C(N)=O` [RI16] (H-RFRRLRKKTRKRLKKI-NH2), the MIC against P. auruginosa 21625 (P. auruginosa 21625, MH broth, ~1×10^5 CFU/ml, 37°C, 16–18 h, visible turbidity, at least three independent experiments) was determined as 256 µM (≈ 559 µg/mL); with P. auruginosa 21630 (P. auruginosa 21630, MH broth, ~1×10^5 CFU/ml, 37°C, 16–18 h, visible turbidity, at least three independent experiments), 256 µM (≈ 559 µg/mL); with P. aeruginosa 27853 (P. auruginosa 27853, MH broth, ~1×10^5 CFU/ml, 37°C, 16–18 h, visible turbidity, at least three independent experiments), 256 µM (≈ 559 µg/mL); against P. auruginosa LC (P. auruginosa LC, MH broth, ~1×10^5 CFU/ml, 37°C, 16–18 h, visible turbidity, at least three independent experiments), 32 µM (≈ 69.8 µg/mL); in the assay with P. auruginosa 10419 (P. auruginosa 10419, MH broth, ~1×10^5 CFU/ml, 37°C, 16–18 h, visible turbidity, at least three independent experiments), 256 µM (≈ 559 µg/mL); in the assay with E. coli 25922 (E. coli 25922, MH broth, ~1×10^5 CFU/ml, 37°C, 16–18 h, visible turbidity, at least three independent experiments) it was 128 µM (≈ 279 µg/mL). In addition, the MIC in the assay on S. epidermidis 12228 (S. epidermidis 12228, MH broth, ~1×10^5 CFU/ml, 37°C, 16–18 h, visible turbidity, at least three independent experiments) is reported as 32 µM (≈ 69.8 µg/mL); against S. typhimurium 7731 (S. typhimurium 7731, MH broth, ~1×10^5 CFU/ml, 37°C, 16–18 h, visible turbidity, at least three independent experiments), 128 µM (≈ 279 µg/mL); in [1] (P. auruginosa LCCI, ciprofloxacin-resistant strain, MH broth, ~1×10^5 CFU/ml, 37°C, 16–18 h, visible turbidity), 256 µM (≈ 559 µg/mL); in [2] (P. auruginosa LCGE, gentamincin-resistant strain, MH broth, ~1×10^5 CFU/ml, 37°C, 16–18 h, visible turbidity), 256 µM (≈ 559 µg/mL); in assay [3] (P. auruginosa LCCE, ceftazidime-resistant strain, MH broth, ~1×10^5 CFU/ml, 37°C, 16–18 h, visible turbidity), 256 µM (≈ 559 µg/mL); in the assay on S. aureus 29213 (S. aureus 29213, MH broth, ~1×10^5 CFU/ml, 37°C, 16–18 h, visible turbidity, at least three independent experiments), 128 µM (≈ 279 µg/mL).

`CC[C@H](C)[C@H](NC(=O)[C@H](CCCCN)NC(=O)[C@H](CCCCN)NC(=O)[C@H](CC(C)C)NC(=O)[C@H](CCCNC(=N)N)NC(=O)[C@H](CCCCN)NC(=O)[C@H](CCCNC(=N)N)NC(=O)[C@H](Cc1ccccc1)NC(=O)[C@H](CCCCN)NC(=O)[C@H](CCCCN)NC(=O)[C@H](CCCNC(=N)N)NC(=O)[C@H](CC(C)C)NC(=O)[C@H](CCCNC(=N)N)NC(=O)[C@H](CCCNC(=N)N)NC(=O)[C@H](Cc1ccccc1)NC(=O)[C@@H](N)CCCNC(=N)N)C(N)=O` [T9F] (H-RFRRLRKKFRKRLKKI-NH2): the MIC in the assay on P. auruginosa 21625 is 256 µM (≈ 571 µg/mL); in the assay with P. auruginosa 21630 it was 256 µM (≈ 571 µg/mL); in the assay on P. aeruginosa 27853 (27853), 256 µM (≈ 571 µg/mL); in the assay on P. auruginosa LC, 64 µM (≈ 143 µg/mL); with P. auruginosa 10419, 256 µM (≈ 571 µg/mL); against E. coli 25922 (25922), 64 µM (≈ 143 µg/mL). Also, the MIC against S. epidermidis 12228 (12228) is recorded as 32 µM (≈ 71.3 µg/mL); with S. typhimurium 7731 (7731), 128 µM (≈ 285 µg/mL); in assay [1], 256 µM (≈ 571 µg/mL); in assay [2], 256 µM (≈ 571 µg/mL); in assay [3], 256 µM (≈ 571 µg/mL); in the assay on S. aureus 29213 (29213), 128 µM (≈ 285 µg/mL).

Turning to `CC[C@H](C)[C@H](NC(=O)[C@H](CCCCN)NC(=O)[C@H](CCCCN)NC(=O)[C@H](CC(C)C)NC(=O)[C@H](CCCNC(=N)N)NC(=O)[C@H](CCCCN)NC(=O)[C@H](CCCNC(=N)N)NC(=O)[C@@H](NC(=O)[C@H](CCCCN)NC(=O)[C@H](CCCCN)NC(=O)[C@H](CCCNC(=N)N)NC(=O)[C@H](CC(C)C)NC(=O)[C@H](CCCNC(=N)N)NC(=O)[C@H](CCCNC(=N)N)NC(=O)[C@H](Cc1ccccc1)NC(=O)[C@@H](N)CCCNC(=N)N)[C@@H](C)CC)C(N)=O` [T9I] (H-RFRRLRKKIRKRLKKI-NH2), the MIC is reported as 256 µM (≈ 562 µg/mL) in the assay with P. auruginosa 21625; 256 µM (≈ 562 µg/mL) against P. auruginosa 21630; 256 µM (≈ 562 µg/mL) in the assay on P. aeruginosa 27853 (27853); 64 µM (≈ 140 µg/mL) against P. auruginosa LC; 256 µM (≈ 562 µg/mL) in the assay on P. auruginosa 10419; 128 µM (≈ 281 µg/mL) in the assay with E. coli 25922 (25922). Moreover, the MIC with S. epidermidis 12228 (12228) is recorded as 32 µM (≈ 70.2 µg/mL); in the assay on S. typhimurium 7731 (7731) it was 256 µM (≈ 562 µg/mL); in [1] it was 256 µM (≈ 562 µg/mL); in assay [2], 256 µM (≈ 562 µg/mL); in assay [3] it was 256 µM (≈ 562 µg/mL); with S. aureus 29213 (29213), 256 µM (≈ 562 µg/mL).

As to `CC[C@H](C)[C@H](NC(=O)[C@H](CCCCN)NC(=O)[C@H](CCCCN)NC(=O)[C@H](CC(C)C)NC(=O)[C@H](CCCNC(=N)N)NC(=O)[C@H](CCCCN)NC(=O)[C@H](CCCNC(=N)N)NC(=O)[C@H](CCCCN)NC(=O)[C@H](CCCCN)NC(=O)[C@H](CCCCN)NC(=O)[C@H](CCCNC(=N)N)NC(=O)[C@H](CC(C)C)NC(=O)[C@H](CCCNC(=N)N)NC(=O)[C@H](CCCNC(=N)N)NC(=O)[C@H](Cc1ccccc1)NC(=O)[C@@H](N)CCCNC(=N)N)C(N)=O` [T9K] (H-RFRRLRKKKRKRLKKI-NH2), the MIC in the assay with P. auruginosa 21625 is 256 µM (≈ 566 µg/mL); in the assay with P. auruginosa 21630, 256 µM (≈ 566 µg/mL); against P. aeruginosa 27853 (27853), 128 µM (≈ 283 µg/mL); in the assay with P. auruginosa LC, 256 µM (≈ 566 µg/mL); against P. auruginosa 10419, 256 µM (≈ 566 µg/mL); against E. coli 25922 (25922), 128 µM (≈ 283 µg/mL). The MIC against S. epidermidis 12228 (12228) was 128 µM (≈ 283 µg/mL); against S. typhimurium 7731 (7731), 256 µM (≈ 566 µg/mL); in the assay with S. aureus 29213 (29213), 128 µM (≈ 283 µg/mL).

With `CC(C)(O/N=C(\C(=O)N[C@@H]1C(=O)N2C(C(=O)[O-])=C(C[n+]3ccccc3)CS[C@H]12)c1csc(N)n1)C(=O)O` [ceftazidime, reference compound], in [3] (Pseudomonas aeruginosa), the MIC was over 512 µM.

In the case of `O=C(O)c1cn(C2CC2)c2cc(N3CCNCC3)c(F)cc2c1=O` [ciprofloxacin, reference compound], in assay [1] (Pseudomonas aeruginosa), the MIC was over 512 µM.
